These are literature values, as cited in patent US20200289553A1, “Compositions and Methods for the Treatment of Metabolic Conditions” (REVEN IP HOLDCo LLC, priority 2017, published 2020).

The conditions of series [1]: rats, 100 mg/kg body weight daily.
The conditions of series [2]: 241 osteoporotic women, 45 mg/day vitamin K2 and 150 mg elemental calcium, after two years.
For series [3] the following is noted: rabbits.

As to `CC(C)=CCC/C(C)=C/CC/C(C)=C/CC/C(C)=C/CC1=C(C)C(=O)c2ccccc2C1=O` [vitamin K2], the “calcium in kidneys and aorta induced by megadose of synthetic vitamin D” value in series [1] was “inhibited the increase in calcium in both kidneys and aorta”. The “lumbar bone mineral density” value in series [2] is on record as “maintain lumbar bone mineral density”. Besides, in series [2] (30% in the control group), the fracture incidence is 10%. For the same molecule, the atherosclerotic plaque progression result in series [3] (1-10 mg/kg daily for 10 weeks) was “inhibited the atherosclerotic plaque progression in the aorta and pulmonary arteries”. For the same molecule, in series [3] (compared to the control group), the “total cholesterol levels, lipid peroxidation, ester cholesterol deposition in the aorta and factor X activity in plasma” value is “seen to reduce”.
